Results from article PMC10004634 (PLOS ONE, 2023).
Read-outs that look alike come from different tables or passages of the source.

Tests used:
Assay in all cases: biochemical
Design in all cases: KINOMEscan scanMAX competition binding, DNA-tagged kinases, qPCR read-out, percent control at 300 nM
DMPK2 = biological target: T1, DMPK2 (Homo sapiens, UniProt Q6DT37)
T1 construct: gene CDC42BPG

DYRK1B = DYRK1B (Homo sapiens, UniProt Q9Y463)
EPHA3 = biological target: T2, EPHA3 (Homo sapiens, UniProt P29320)
T2 sequence (P29320 1-983): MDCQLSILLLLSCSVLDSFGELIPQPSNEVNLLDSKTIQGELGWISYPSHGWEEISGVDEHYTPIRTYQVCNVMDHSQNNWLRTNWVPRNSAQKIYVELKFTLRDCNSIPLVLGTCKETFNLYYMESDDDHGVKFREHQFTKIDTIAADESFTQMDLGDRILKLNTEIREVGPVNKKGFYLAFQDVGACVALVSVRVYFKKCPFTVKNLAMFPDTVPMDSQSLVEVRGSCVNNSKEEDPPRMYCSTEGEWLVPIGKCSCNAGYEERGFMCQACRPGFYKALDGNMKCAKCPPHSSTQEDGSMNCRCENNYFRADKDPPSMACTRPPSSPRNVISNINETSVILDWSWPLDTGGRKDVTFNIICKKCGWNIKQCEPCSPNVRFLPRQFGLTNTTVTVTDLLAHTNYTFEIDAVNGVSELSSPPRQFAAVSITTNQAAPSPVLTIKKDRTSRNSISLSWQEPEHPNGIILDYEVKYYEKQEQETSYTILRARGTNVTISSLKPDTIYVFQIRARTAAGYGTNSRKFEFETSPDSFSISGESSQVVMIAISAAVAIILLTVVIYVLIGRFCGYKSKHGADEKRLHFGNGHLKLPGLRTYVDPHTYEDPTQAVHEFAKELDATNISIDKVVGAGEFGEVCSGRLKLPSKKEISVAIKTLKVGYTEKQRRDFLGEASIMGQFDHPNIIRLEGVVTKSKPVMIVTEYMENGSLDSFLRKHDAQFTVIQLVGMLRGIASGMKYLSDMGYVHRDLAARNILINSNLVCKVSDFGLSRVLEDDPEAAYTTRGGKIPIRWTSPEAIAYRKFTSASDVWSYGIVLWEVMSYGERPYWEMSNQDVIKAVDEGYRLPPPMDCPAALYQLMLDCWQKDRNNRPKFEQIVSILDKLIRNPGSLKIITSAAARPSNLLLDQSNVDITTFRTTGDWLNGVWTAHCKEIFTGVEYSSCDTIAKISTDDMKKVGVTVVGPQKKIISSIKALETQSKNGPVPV

[1] = biological target: T3, JAK1(JH1domain-catalytic) (Homo sapiens, UniProt P23458)
T3 construct: JH1domain-catalytic
T3 sequence (P23458 whole entry): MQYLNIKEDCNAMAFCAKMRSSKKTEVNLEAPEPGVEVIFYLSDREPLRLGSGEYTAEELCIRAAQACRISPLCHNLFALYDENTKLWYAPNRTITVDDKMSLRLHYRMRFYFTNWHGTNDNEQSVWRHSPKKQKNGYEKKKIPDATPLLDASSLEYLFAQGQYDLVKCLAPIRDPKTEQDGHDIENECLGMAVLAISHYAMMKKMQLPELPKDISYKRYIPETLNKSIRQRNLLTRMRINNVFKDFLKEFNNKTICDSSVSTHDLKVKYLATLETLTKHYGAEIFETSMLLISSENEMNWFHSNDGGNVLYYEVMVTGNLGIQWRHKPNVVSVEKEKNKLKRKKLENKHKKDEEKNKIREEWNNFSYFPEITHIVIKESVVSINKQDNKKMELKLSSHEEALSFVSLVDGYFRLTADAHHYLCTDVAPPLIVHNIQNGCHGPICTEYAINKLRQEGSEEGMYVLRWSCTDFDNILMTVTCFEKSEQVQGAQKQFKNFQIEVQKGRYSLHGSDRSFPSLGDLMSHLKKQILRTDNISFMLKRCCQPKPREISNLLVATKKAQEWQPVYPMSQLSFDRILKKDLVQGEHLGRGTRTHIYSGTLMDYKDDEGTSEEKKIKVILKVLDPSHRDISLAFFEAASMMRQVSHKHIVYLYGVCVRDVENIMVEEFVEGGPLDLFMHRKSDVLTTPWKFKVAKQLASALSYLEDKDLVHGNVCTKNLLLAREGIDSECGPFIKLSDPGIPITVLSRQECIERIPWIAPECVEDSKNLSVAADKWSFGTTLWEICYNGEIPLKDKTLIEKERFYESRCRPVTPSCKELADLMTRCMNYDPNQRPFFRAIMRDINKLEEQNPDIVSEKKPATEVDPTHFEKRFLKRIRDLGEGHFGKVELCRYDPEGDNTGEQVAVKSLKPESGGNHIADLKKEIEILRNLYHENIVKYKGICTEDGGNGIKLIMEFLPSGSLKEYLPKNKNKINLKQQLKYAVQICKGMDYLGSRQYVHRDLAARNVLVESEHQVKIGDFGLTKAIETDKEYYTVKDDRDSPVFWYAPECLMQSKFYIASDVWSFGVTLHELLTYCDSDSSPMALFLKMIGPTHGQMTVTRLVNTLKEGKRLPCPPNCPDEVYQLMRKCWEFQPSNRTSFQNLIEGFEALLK

SLK = SLK (Homo sapiens, UniProt Q9H2G2)
Chain of SLK (Q9H2G2 whole entry): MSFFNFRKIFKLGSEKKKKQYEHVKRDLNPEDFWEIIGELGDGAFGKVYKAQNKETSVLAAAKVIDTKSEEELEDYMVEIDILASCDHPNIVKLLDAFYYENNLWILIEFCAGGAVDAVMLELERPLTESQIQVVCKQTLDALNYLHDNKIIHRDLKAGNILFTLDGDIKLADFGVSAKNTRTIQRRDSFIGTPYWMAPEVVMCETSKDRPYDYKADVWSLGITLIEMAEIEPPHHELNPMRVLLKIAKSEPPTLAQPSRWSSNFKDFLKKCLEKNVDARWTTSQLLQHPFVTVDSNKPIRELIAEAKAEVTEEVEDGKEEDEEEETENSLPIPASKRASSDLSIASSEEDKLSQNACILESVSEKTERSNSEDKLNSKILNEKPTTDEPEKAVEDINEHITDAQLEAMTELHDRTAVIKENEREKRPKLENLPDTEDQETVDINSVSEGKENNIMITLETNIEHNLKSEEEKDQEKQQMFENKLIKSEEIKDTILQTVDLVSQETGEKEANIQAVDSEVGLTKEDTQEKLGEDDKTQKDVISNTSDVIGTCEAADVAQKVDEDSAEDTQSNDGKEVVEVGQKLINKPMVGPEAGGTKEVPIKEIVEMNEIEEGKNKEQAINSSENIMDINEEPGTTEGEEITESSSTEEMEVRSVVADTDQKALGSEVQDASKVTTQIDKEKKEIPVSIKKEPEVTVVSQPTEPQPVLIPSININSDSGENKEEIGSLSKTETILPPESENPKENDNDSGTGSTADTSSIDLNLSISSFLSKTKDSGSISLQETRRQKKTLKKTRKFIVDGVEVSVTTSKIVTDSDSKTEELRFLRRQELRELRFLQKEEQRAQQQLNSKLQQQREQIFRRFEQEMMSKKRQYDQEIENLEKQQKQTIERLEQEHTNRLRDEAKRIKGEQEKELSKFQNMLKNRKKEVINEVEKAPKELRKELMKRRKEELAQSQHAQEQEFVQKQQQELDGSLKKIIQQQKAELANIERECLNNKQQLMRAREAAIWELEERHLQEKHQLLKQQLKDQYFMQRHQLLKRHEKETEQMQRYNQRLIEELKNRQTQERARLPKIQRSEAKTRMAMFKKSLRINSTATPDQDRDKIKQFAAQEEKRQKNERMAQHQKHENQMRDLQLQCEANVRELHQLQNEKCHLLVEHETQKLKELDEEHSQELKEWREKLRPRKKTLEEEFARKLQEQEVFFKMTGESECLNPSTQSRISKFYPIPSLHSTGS

p38-alpha = biological target: T4, p38-alpha (Homo sapiens, UniProt Q16539)
T4 construct: gene MAPK14
T4 sequence (Q16539 whole entry): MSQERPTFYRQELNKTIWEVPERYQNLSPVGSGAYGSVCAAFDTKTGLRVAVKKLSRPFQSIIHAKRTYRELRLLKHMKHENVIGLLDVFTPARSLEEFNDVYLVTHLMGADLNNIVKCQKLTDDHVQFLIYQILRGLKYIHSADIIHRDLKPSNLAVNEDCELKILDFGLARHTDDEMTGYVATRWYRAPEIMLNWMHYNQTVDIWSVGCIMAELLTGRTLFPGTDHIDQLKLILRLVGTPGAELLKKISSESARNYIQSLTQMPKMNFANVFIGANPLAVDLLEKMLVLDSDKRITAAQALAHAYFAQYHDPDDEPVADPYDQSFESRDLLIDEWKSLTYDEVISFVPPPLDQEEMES

FRK = FRK (Homo sapiens, UniProt P42685)
Chain of FRK (P42685 whole entry): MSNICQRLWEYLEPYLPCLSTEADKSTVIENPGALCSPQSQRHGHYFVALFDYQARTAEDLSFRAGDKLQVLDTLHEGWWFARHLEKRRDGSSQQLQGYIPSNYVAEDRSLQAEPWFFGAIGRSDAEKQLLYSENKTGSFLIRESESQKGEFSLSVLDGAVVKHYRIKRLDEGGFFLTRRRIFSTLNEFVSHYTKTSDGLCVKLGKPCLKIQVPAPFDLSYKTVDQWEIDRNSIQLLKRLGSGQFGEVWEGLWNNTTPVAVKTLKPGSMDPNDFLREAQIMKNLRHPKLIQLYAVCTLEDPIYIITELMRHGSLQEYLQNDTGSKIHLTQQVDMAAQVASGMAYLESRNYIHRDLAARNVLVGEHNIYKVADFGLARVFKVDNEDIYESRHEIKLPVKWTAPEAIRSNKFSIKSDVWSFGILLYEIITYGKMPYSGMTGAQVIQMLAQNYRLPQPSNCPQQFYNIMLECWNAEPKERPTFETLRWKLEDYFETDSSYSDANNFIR

RIOK3 = biological target: T5, RIOK3 (Homo sapiens, UniProt O14730)
T5 sequence (O14730 1-519): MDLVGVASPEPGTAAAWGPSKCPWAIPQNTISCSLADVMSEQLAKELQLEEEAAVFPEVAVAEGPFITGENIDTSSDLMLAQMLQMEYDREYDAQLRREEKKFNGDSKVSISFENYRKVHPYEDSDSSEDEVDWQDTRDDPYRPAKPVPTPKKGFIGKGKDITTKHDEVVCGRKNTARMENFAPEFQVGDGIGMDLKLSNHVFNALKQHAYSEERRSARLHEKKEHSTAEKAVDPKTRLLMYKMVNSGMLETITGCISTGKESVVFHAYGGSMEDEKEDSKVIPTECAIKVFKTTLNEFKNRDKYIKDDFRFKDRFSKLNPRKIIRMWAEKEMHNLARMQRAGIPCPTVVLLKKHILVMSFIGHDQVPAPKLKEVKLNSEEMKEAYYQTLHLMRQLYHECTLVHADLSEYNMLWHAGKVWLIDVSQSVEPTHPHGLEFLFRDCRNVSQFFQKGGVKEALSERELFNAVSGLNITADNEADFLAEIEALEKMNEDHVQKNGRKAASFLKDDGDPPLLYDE

STK35 = STK35 (Homo sapiens, UniProt Q8TDR2)
Chain of STK35 (Q8TDR2 whole entry): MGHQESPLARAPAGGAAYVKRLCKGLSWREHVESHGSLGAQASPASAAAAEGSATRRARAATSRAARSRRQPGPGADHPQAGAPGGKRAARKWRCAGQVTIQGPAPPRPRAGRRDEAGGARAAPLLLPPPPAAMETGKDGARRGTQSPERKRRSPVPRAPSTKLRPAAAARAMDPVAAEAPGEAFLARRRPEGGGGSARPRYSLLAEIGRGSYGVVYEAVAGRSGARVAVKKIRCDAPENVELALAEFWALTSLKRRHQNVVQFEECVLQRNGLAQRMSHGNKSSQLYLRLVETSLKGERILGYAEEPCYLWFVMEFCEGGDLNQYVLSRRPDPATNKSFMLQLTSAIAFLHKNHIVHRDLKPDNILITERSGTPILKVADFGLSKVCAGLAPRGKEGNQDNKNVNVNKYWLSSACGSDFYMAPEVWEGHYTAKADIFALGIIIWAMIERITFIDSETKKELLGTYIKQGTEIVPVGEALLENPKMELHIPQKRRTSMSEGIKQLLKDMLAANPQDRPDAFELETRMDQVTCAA

[2] = read-out: Percent control / Tirabrutinib
[3] = read-out: Percent control / Ibrutinib
[4] = read-out: Percent control / Zanubrutinib
[5] = read-out: Percent control / Acalabrutinib

Chain of DYRK1B (Q9Y463 whole entry): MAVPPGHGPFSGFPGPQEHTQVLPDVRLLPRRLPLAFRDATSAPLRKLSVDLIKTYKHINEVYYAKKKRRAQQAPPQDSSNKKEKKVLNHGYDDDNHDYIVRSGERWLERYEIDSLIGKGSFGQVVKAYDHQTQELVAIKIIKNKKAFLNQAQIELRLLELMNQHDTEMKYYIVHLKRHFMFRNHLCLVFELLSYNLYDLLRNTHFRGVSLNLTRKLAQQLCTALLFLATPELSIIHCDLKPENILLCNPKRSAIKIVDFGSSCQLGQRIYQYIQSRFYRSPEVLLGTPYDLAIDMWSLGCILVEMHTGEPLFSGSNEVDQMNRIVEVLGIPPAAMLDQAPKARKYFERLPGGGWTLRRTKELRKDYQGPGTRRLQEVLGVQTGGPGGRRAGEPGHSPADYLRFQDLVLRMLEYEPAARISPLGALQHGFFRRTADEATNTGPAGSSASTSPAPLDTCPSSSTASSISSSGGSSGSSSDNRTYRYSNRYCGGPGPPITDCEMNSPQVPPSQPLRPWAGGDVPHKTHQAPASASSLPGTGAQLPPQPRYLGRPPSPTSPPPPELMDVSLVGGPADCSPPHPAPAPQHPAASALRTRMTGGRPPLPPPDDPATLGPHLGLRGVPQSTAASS

In the case of `CC#CC(=O)N1CC[C@@H](n2c(=O)n(-c3ccc(Oc4ccccc4)cc3)c3c(N)ncnc32)C1` [Tirabrutinib], the remaining binding at 0.3 µM (DMPK2; [2]) is reported as 87%, the remaining binding at 0.3 µM (DYRK1B; [2]) is reported as 70% and the remaining binding at 0.3 µM (EPHA3; [2]) is reported as 92%. The remaining binding at 0.3 µM [1, 2] was 88%, the remaining binding at 0.3 µM (SLK; [2]) was 93% and the remaining binding at 0.3 µM (p38-alpha; [2]) was 92%.

In the case of `C=CC(=O)N1CCC[C@@H](n2nc(-c3ccc(Oc4ccccc4)cc3)c3c(N)ncnc32)C1` [Ibrutinib], the remaining binding at 0.3 µM (DMPK2; [3]) is reported as 75%, the remaining binding at 0.3 µM (EPHA3; [3]) is reported as 82% and the remaining binding at 0.3 µM (FRK; [3]) is reported as 32%. For the same molecule, the remaining binding at 0.3 µM (RIOK3; [3]) was 89%, the remaining binding at 0.3 µM (SLK; [3]) was 92% and the remaining binding at 0.3 µM (STK35; [3]) was 86%. For the same molecule, the remaining binding at 0.3 µM (p38-alpha; [3]) was 98%.

`C=CC(=O)N1CCC([C@@H]2CCNc3c(C(N)=O)c(-c4ccc(Oc5ccccc5)cc4)nn32)CC1` [Zanubrutinib] gave a remaining binding at 0.3 µM (DYRK1B; [4]) of 71%, a remaining binding at 0.3 µM (EPHA3; [4]) of 75% and a remaining binding at 0.3 µM (FRK; [4]) of 42%. The remaining binding at 0.3 µM [1, 4] was 87%, the remaining binding at 0.3 µM (RIOK3; [4]) was 100% and the remaining binding at 0.3 µM (SLK; [4]) was 99%. The remaining binding at 0.3 µM (STK35; [4]) was 92% and the remaining binding at 0.3 µM (p38-alpha; [4]) was 97%.

Work on `CC#CC(=O)N1CCC[C@H]1c1nc(-c2ccc(C(=O)Nc3ccccn3)cc2)c2c(N)nccn12` [Acalabrutinib] yielded a remaining binding at 0.3 µM (DMPK2; [5]) of 91%, a remaining binding at 0.3 µM (DYRK1B; [5]) of 72% and a remaining binding at 0.3 µM (EPHA3; [5]) of 74%. It also gave a remaining binding at 0.3 µM (FRK; [5]) of 79%, a remaining binding at 0.3 µM [1, 5] of 64% and a remaining binding at 0.3 µM (RIOK3; [5]) of 90%. The remaining binding at 0.3 µM (SLK; [5]) was 88%, the remaining binding at 0.3 µM (STK35; [5]) was 96% and the remaining binding at 0.3 µM (p38-alpha; [5]) was 85%.
